Where two headings read alike, the source gives them in different places.
How the values were obtained:
[1] = tested on: isolated duodenum of rabbit, spasms induced by barium chloride; assay: Spasmolytic activity, musculotrope versus BaCl2, isolated duodenum (Magnus)
Description: (§1) The spasmolytic activities are known by means of the technique of R. Magnus (Arch. Ges. Physiol., 1904, 102, 123) on the isolated duodenum of rabbits. The spasmolytic neurotropes inhibit the contractions of the organ caused by acetylcholine, while the musculotropes prevent the spasms induced by barium chloride. The EC 50 expressed in mg/litre are collected in the following Table where EC denotes "Effective concentration".

[2] = Acute toxicity in mice, intravenous and oral (LD50); type: in vivo; settings: mouse, in vivo
Description: The acute toxicities of the compounds according to the invention have been determined CD 1 mice (Charles RIVER) by intravenous and oral methods. The LD50 calculated by the quantal cumulative method of J. J. Reed and H. Muench (Amer. J. Hyg. 1938, 27, 493) are collected in the following Table: […]

[3] = tested on: isolated duodenum of rabbit, contractions caused by acetylcholine; assay: Spasmolytic activity, neurotrope versus acetylcholine, isolated duodenum (Magnus)
Description: as §1

isolated rabbit heart = assay: Coronaro-dilatatory activity, isolated heart (Langendorff modified by Anderson); settings: for coronaro-dilatatory activity (in words): isolated rabbit heart
Description: The technique of Langendorff, modified by F. E. Anderson, (J. Pharmacol. exp. Therap., 1948, 91, 135) using isolated rabbit heart permits the coronaro-dilatatory activity of the products to be studied. In this text, the cardiac perfusion liquid contains 0.5 UI/1 of posthypophysis. The results are expressed in the percentage variation of the coronary flow after affusion of the product to be tested, compared with the initial flow.

[4] = intravenous, read-out: Acute toxicity to mice LD 50, intravenous
[5] = oral, read-out: Acute toxicity to mice LD 50, orally

| SMILES | Spasmolytic activity EC 50, musculotrope versus BaCl2 [1] [µg/mL] | LD50 [2, 4] [mg/kg] | LD50 [2, 5] [mg/kg] | Spasmolytic activity EC 50, neurotrope versus acetylcholine [3] [µg/mL] | other results |
| --- | --- | --- | --- | --- | --- |
| CCOC(=O)CN(C)c1nc(Cl)c(SC)c(NCCN(C)C)n1 [Example 10, 2-N-methyl-N-(ethoxycarbonylmethyl)-amino-4-(2'-dimethylamino)-ethylamino-5-methylthio-6-chloro-pyrimidine] | 0.50 | 79 | 900 | 0.50 | neurotropic spasmolytic activity (in words) [3]: necessary to call attention |
| CCN(CC)CCNc1nc(N(C)c2ccc(Cl)cc2)nc(OC)c1SC [Example 25, 2-N-methyl-N(4-chloro-phenyl)amino-4-(2'-diethylamino)-ethylamino-5-methylthio-6-methoxy-pyrimidine] | – | – | ~600 | – | – |
| CCCCOc1nc(N(C)c2ccccc2)nc(NCCN(C(C)C)C(C)C)c1SC [Example 32, 2-N-methyl-N-phenylamino-4-(2'-diiso-propyl-amino)-ethylamino-5-methyl-thio-6-butoxy-pyrimidine] | – | – | ~525 | – | – |
| COc1ccc(N(C)c2nc(Cl)c(SC)c(NCCN(C(C)C)C(C)C)n2)cc1OC [Example 21, 2-N-methyl-N(3,4-dimethoxy-phenyl)amino-4-(2'-diisopropylamino)-ethylamino-5-methylthio-6-chloro-pyrimidine] | – | – | ~600 | – | – |
| CCN(CC)CCNc1nc(N(C)c2ccc(C)cc2)nc(Cl)c1SC [Example 19, 2-N-methyl-N(4-methyl-phenyl)amino-4-(2'-diethylamino)-ethylamino-5-methyl-thio-6-chloro-pyrimidine] | – | – | ~675 | – | – |
| CSc1c(Cl)nc(N(C)C)nc1NCCN(C)C [Example 8, 2-dimethylamino-4-(2'-dimethylamino)-ethylamino-5-methylthio-6-chloro-pyrimidine] | 2.80 | 57 | 525 | 4.90 | – |
| CCN(CC)CCNc1nc(N(C)c2ccc(OC)c(OC)c2)nc(Cl)c1SC [Example 20, 2-N-methyl-N(3,4-dimethoxy-phenyl)amino-4-(2'-diethylamino)-ethylamino-5-methylthio-6-chloro-pyrimidine] | – | – | 400 | – | – |
| CCCCOc1nc(N(C)Cc2ccccc2)nc(NCCN(C(C)C)C(C)C)c1SC [Example 31, 2-N-methyl-2-N-benzylamino-4-(2'-di-isopropyl-amino)-ethylamino-5-methylthio-6-butoxy-pyrimidine] | – | – | ~675 | – | – |
| CCN(CC)CCNc1nc(N(C)C)nc(Cl)c1SC [Example 1, 2-dimethylamino-4-(2'-diethylamine)ethylamino-5-methylthio-6-chloropyrimidine] | 1.40 | 53 | 200 | 5.50 | – |
| CSc1c(NCCN(C)C)nc(N(C)C)nc1OCc1cccnc1 [Example 23, 2-N-dimethyl-amino-4-(2'-dimethylamino)-ethylamino-5-methyl-thio-6-(3-pyridyl)-methoxy-pyrimidine] | 1.00 | 22 | 175 | 8.60 | – |
| CSc1c(Cl)nc(N(C)c2ccc(C)cc2)nc1NCCN(C(C)C)C(C)C [Example 14, 2-N-methyl-N(4-methyl-phenyl)amino-4-(2'-diisopropylamino)-ethylamino-5-methylthio-6-chloro-pyrimidine] | 0.04 | 92 | 900 | 0.08 | Increase of the coronary flow (isolated rabbit heart; dose 0.003 mg): 104%; Increase of the coronary flow (isolated rabbit heart; dose 0.01 mg): 140%; Increase of the coronary flow (isolated rabbit heart; dose 0.03 mg): 168%; coronaro-dilatatory activity (in words) (isolated rabbit heart): interesting coronaro-dilatatory activities; musculotropic EC 50 [1]: less than 0.1 mg/liter; musculotropic spasmolytic activity (in words) [1]: quite remarkable activities; neurotropic spasmolytic activity (in words) [3]: necessary to call attention |
| CSc1c(Cl)nc(N(C)Cc2ccccc2)nc1NCCN(C(C)C)C(C)C [Example 11, 2-N-methyl-N-benzylamino-4-(2'-di-isopropyl-amino)-ethylamino-5-methylthio-6-chloro-pyrimidine] | 0.02 | 60 | 675 | 3.50 | Increase of the coronary flow (isolated rabbit heart; dose 0.001 mg): 168%; Increase of the coronary flow (isolated rabbit heart; dose 0.003 mg): 172%; coronaro-dilatatory activity (in words) (isolated rabbit heart): interesting coronaro-dilatatory activities; musculotropic EC 50 [1]: less than 0.1 mg/liter; musculotropic spasmolytic activity (in words) [1]: quite remarkable activities |
| CCN(CC)CCNc1nc(N(C)Cc2ccccc2)nc(Cl)c1SC [Example 4, 2-N-methyl-N-benzylamino-4-(2'-diethylamino)-ethylamino-5-methylthio-6-chloro-pyrimidine] | 0.06 | 45 | 525 | 0.30 | Increase of the coronary flow (isolated rabbit heart; dose 0.003 mg): 8%; Increase of the coronary flow (isolated rabbit heart; dose 0.01 mg): 28%; Increase of the coronary flow (isolated rabbit heart; dose 0.03 mg): 41%; Increase of the coronary flow (isolated rabbit heart; dose 0.10 mg): 135%; coronaro-dilatatory activity (in words) (isolated rabbit heart): interesting coronaro-dilatatory activities; musculotropic EC 50 [1]: less than 0.1 mg/liter; musculotropic spasmolytic activity (in words) [1]: quite remarkable activities; neurotropic spasmolytic activity (in words) [3]: necessary to call attention |
| COc1ccc(N(C)c2nc(NCCN(C(C)C)C(C)C)c(SC)c(OC)n2)cc1OC [Example 28, 2-N-methyl-N-(3,4-dimethoxy-phenyl)-amino-4-(2'-diisopropyl-amino)-ethyl-amino-5-methylthio-6-methoxy-pyrimidine] | – | – | ~200 | – | – |
| COc1nc(N2CCCCC2)nc(NCCN(C(C)C)C(C)C)c1SC [Example 29, 2-piperidino-4-(2'-diisopropyl-amino)-ethylamino-5-methylthio-6-methoxy-pyrimidine] | – | – | ~200 | – | – |
| CSc1c(Cl)nc(N(C)c2ccc(Cl)cc2)nc1NCCN1CC(C)OC(C)C1 (centres unmarked) [Example 22, 2-N-methyl-N-(4-chloro-phenyl)amino-4-(2'-2,6-dimethyl-morpholino)-ethylamino-5-methylthio-6-chloro-pyrimidine] | – | – | > 900 | – | – |
| CCOC(=O)CN(C)c1nc(Cl)c(SC)c(NCCN(C(C)C)C(C)C)n1 [Example 15, 2-N-methyl-N-(ethoxycarbonylmethyl)-amino-4-(2'-diisopropylamino)-ethylamino-5-methyl-thio-6-chloro-pyrimidine] | 0.05 | 63 | > 900 | – | Increase of the coronary flow (isolated rabbit heart; dose 0.003 mg): 16%; Increase of the coronary flow (isolated rabbit heart; dose 0.01 mg): 24%; Increase of the coronary flow (isolated rabbit heart; dose 0.03 mg): 44%; Increase of the coronary flow (isolated rabbit heart; dose 0.10 mg): 28%; coronaro-dilatatory activity (in words) (isolated rabbit heart): interesting coronaro-dilatatory activities; musculotropic EC 50 [1]: less than 0.1 mg/liter; musculotropic spasmolytic activity (in words) [1]: quite remarkable activities |
| CSc1c(Cl)nc(N2CCOCC2)nc1NCCN(C)C [Example 9, 2-morpholino-4-(2'-dimethylamino)-ethyl-amino-5-methylthio-6-chloro-pyrimidine] | 1.90 | – | 400 | 3.00 | – |

Source: patent US3968214A, “5-Methylthio-pyrimidine vasodilators” (Produits Chimiques Ugine Kuhlmann, priority 1973, dated 1976)
